Results published in patent publication US10227350B2 (Gilead Sciences, Inc., priority 2016, dated 2019).

Molecular target: PI3Kβ (Homo sapiens (Human), UniProt P42338)
Assay: TR-FRET enzymatic activity assay, PI3Kβ
Type: biochemical
Conditions: 2× Km ATP, 2 μM PIP2, 30 minutes at 25° C., read-out: IC50-PIP-Beta
Procedure, shortened: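 Purified recombinant heterodimeric PI3Kβ; PIP3 formation read by TR-FRET as competition with fluorescent tracer for GRP-1 PH domain binding. Compounds incubated 30 min at 25 °C.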

Sequence of PI3Kβ (P42338 whole entry): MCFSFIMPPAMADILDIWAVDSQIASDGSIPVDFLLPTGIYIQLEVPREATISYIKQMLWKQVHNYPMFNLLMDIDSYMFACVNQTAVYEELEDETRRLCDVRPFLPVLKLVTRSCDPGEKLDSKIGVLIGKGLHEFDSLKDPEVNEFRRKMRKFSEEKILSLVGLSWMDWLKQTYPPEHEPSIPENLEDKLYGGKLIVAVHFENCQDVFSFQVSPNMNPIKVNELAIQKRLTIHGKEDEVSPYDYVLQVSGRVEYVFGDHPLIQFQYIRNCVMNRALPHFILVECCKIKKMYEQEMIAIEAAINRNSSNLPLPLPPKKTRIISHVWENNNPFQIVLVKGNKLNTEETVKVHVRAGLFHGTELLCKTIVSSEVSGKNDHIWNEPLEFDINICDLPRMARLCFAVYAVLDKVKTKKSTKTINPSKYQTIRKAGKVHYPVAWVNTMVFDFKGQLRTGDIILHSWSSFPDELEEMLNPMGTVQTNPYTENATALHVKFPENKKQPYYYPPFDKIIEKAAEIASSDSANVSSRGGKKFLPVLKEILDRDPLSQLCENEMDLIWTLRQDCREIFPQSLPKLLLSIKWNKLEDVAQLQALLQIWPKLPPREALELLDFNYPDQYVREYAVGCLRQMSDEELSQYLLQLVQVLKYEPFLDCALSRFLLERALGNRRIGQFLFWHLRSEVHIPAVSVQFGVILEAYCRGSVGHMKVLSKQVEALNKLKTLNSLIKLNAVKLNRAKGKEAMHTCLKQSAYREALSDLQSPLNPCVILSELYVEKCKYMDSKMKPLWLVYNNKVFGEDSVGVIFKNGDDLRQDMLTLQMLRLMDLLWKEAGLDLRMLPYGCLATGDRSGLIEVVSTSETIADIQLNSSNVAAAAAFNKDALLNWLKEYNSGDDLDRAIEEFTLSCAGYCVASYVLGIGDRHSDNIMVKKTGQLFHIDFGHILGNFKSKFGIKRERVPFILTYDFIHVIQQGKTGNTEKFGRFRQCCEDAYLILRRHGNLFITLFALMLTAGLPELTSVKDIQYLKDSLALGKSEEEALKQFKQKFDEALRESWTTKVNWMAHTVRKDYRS
Sequence of PI3Kβ (P27986 whole entry partner): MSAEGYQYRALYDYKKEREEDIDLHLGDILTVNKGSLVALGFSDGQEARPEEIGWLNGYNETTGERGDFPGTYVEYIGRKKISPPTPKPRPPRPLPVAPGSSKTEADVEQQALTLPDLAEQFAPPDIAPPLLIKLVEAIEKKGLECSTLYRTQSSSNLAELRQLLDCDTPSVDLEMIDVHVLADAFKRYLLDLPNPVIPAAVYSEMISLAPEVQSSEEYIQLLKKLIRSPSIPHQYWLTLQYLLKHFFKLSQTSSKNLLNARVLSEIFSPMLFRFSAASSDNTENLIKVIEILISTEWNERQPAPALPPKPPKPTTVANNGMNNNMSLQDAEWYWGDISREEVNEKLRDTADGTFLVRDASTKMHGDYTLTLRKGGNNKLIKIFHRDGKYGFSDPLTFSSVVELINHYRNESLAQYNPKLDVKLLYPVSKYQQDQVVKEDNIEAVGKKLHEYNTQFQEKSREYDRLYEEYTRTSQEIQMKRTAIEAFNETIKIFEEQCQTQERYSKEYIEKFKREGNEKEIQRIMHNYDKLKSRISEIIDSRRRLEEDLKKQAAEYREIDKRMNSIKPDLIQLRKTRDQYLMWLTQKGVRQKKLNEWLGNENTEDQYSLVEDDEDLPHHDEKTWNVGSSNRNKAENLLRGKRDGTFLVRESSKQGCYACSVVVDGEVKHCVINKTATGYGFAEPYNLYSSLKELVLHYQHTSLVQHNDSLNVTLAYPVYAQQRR

Question: How did the IC50 turn out when `Cc1cc(-c2cc(-c3nnc[nH]3)c3nc(C)n(-c4ccnc5c(F)ccc(F)c45)c3c2)ccn1` [Example 45, 5,8-difluoro-4-[2-methyl-6-(2-methylpyridin-4-yl)-4-(4H-1,2,4-triazol-3-yl)benzimidazol-1-yl]quinoline] was run?
Answer: 8 nM

Question: Which IC50 does the source give for `Cc1c(-c2cc(-c3nnc[nH]3)c3nc(C)n(-c4ccnc5c(F)ccc(F)c45)c3c2)ccnc1F` [Example 46, 5,8-difluoro-4-[6-(2-fluoro-3-methylpyridin-4-yl)-2-methyl-4-(4H-1,2,4-triazol-3-yl)benzimidazol-1-yl]quinoline] here?
Answer: 1100 nM

Question: With `Fc1nccc(-c2cc(-c3nnc[nH]3)c3ncn(-c4ccnc5c(F)ccc(F)c45)c3c2)c1F` [Example 47, 4-[6-(2,3-difluoropyridin-4-yl)-4-(4H-1,2,4-triazol-3-yl)benzimidazol-1-yl]-5,8-difluoroquinoline] as the compound, how does the IC50 read?
Answer: 46 nM

Question: Which IC50 does the source give for `Cc1nc2c(-c3nnc[nH]3)cc(-c3ccnc(N)c3)cc2n1-c1ccnc2c(F)ccc(F)c12` [Example 48, 4-[3-(5,8-difluoroquinolin-4-yl)-2-methyl-7-(4H-1,2,4-triazol-3-yl)benzimidazol-5-yl]pyridin-2-amine] here?
Answer: 10 nM

Question: With `Cc1nnc(-c2cc(-c3ccnc(N)c3)cc3c2nc(C)n3-c2ccnc3c(Cl)cccc23)[nH]1` [Example 49, 4-[3-(8-chloroquinolin-4-yl)-2-methyl-7-(5-methyl-4H-1,2,4-triazol-3-yl)benzimidazol-5-yl]pyridin-2-amine] as the compound, how does the IC50 read?
Answer: 170 nM

Question: With `Cc1nnc(-c2cc(-c3ccnc(N)c3)cc3c2nc(C)n3-c2ccnc3c(Cl)ccc(F)c23)[nH]1` [Example 50, 4-[3-(8-chloro-5-fluoroquinolin-4-yl)-2-methyl-7-(5-methyl-4H-1,2,4-triazol-3-yl)benzimidazol-5-yl]pyridin-2-amine] as the compound, how does the IC50 read?
Answer: 17 nM

Question: For `Cc1nc2c(-c3nnc[nH]3)cc(-c3ccnc(N)c3)cc2n1-c1ccnc2c(Cl)ccc(F)c12` [Example 51, 4-[3-(8-chloro-5-fluoroquinolin-4-yl)-2-methyl-7-(4H-1,2,4-triazol-3-yl)benzimidazol-5-yl]pyridin-2-amine], which IC50 is on record?
Answer: 3 nM

Question: With `CCc1nc2c(-c3nnc[nH]3)cc(-c3ccnc(N)c3)cc2n1-c1ccnc2cc(F)ccc12` [Example 52, 4-[2-ethyl-3-(7-fluoroquinolin-4-yl)-7-(4H-1,2,4-triazol-3-yl)benzimidazol-5-yl]pyridin-2-amine] as the compound, how does the IC50 read?
Answer: 330 nM

Question: `Cc1nc2c(-c3nnc[nH]3)cc(-c3ccnc(N)c3)cc2n1-c1ccnc2cc(F)ccc12` [Example 53, 4-[3-(7-fluoroquinolin-4-yl)-2-methyl-7-(4H-1,2,4-triazol-3-yl)benzimidazol-5-yl]pyridin-2-amine] was tested. Which IC50 did it give?
Answer: 180 nM

Question: For `CCc1nc2c(-c3nnc[nH]3)cc(-c3ccnc(N)c3)cc2n1-c1ccnc2cccc(F)c12` [Example 54, 4-[2-ethyl-3-(5-fluoroquinolin-4-yl)-7-(4H-1,2,4-triazol-3-yl)benzimidazol-5-yl]pyridin-2-amine], which IC50 is on record?
Answer: 36 nM

Question: For `Cc1nc2c(-c3nnc[nH]3)cc(-c3ccnc(N)c3)cc2n1-c1ccnc2cccc(F)c12` [Example 55, 4-[3-(5-fluoroquinolin-4-yl)-2-methyl-7-(4H-1,2,4-triazol-3-yl)benzimidazol-5-yl]pyridin-2-amine], which IC50 is on record?
Answer: 19 nM

Question: How did the IC50 turn out when `Cc1nc2c(-c3nnc[nH]3)cc(-c3ccnc(N)n3)cc2n1-c1ccnc2c(Cl)cccc12` [Example 56, 4-[3-(8-chloroquinolin-4-yl)-2-methyl-7-(4H-1,2,4-triazol-3-yl)benzimidazol-5-yl]pyrimidin-2-amine] was run?
Answer: 9 nM

Question: With `Cc1nc2c(-c3nnc[nH]3)cc(-c3cc(N)nc(N)n3)cc2n1-c1ccnc2c(Cl)cccc12` [Example 57, 6-[3-(8-chloroquinolin-4-yl)-2-methyl-7-(4H-1,2,4-triazol-3-yl)benzimidazol-5-yl]pyrimidine-2,4-diamine] as the compound, how does the IC50 read?
Answer: 290 nM

Question: Which IC50 does the source give for `Cc1nc2c(-c3nnc[nH]3)cc(-c3ccnc(N)c3)cc2n1-c1ccnc2c(Cl)cccc12` [Example 58, 4-(1-(8-chloroquinolin-4-yl)-2-methyl-4-(4H-1,2,4-triazol-3-yl)-1H-benzo[d]imidazol-6-yl)pyridin-2-amine] here?
Answer: 10 nM
